According to patent US3952017A, “Tricyclic compounds” (Hoffmann-La Roche Inc., priority 1968, dated 1976):
Structures can show the parent of a compound that is named as a salt. Where two headings read alike, the source gives them in different places.

What was measured:
[1] = test system: rats; assay: antidepressive action: suppression of ptosis, seeking behavior, motility and sensitivity to stimulus in rats given 2-hydroxy-2-ethyl-3-isobutyl-9,10-dimethoxy-1,2,3,4,6,7-hexahydro-11bH-benzo[a,d]quinolizine hydrochloride; type: in vivo; conditions: 3 x 50 mg/kg p.o.; for Activity in % compared to Amitriptyline: Amitriptyline 100%
Procedure: The same dosage was administered to a control group of 5 non-pretreated rats. The ratings include central and peripheral symptoms, which are characteristic for tricyclic antidepressants [cf. Ann. N.Y. Acad. Sci. 96, 279 (1962)]. […] These changes were recorded according to a rating scheme which utilized numbers. […] The stated percentages are compared with the values for Amitriptyline* (Amitriptyline 100%).

[2] = test system: salivation in rabbits; assay: anticholinergic action: inhibition of pilocarpine-increased salivation in rabbits under light urethane narcosis; type: in vivo; conditions: for inhibition at 3 mg/kg: Oryctolagus cuniculus, 3 mg/kg i.v., pilocarpine 5 mg/kg s.c.
Procedure: The low anticholinergic action can be shown by the lack of salivation inhibition in rabbits: The salivation in rabbits under light urethane narcosis was increased by pilocarpine injection (5 mg/kg. s.c.) and the amount of saliva was measured at 5-minute intervals. The inhibition of salivation is expressed as a percentage based upon the salivation of animals which only received pilocarpine.

[3] = test system: mice; assay: acute toxicity in mice (24-hour values); conditions: mouse, in vivo
Text: (§1) The low toxicity of the compounds of the invention can be illustrated by the acute toxicity of 1-methyl-10,11-dihydro-5-(3-dimethylaminopropyl)-5H-dibenzo[a,d]cycloheptene hydrochloride in mice (24-hour values): […]

[4] = acute toxicity in mice (24-hour values); conditions: mouse, in vivo, mice, 24-hour values
Text: as §1

| Compound | Activity in % compared to Amitriptyline [1] | inhibition at 3 mg/kg [2] | further results |
| --- | --- | --- | --- |
| CNCCCC1c2ccccc2CCc2c(C)cccc21.Cl (stereo not shown) [1-Methyl-10,11-dihydro-5-(3-methylaminopropyl)-5H-dibenzo[a,d]cycloheptene hydrochloride] | 180% | 40% | – |
| Cc1cccc2c1C=Cc1ccccc1C2=CCC[N+](C)(C)[O-] [1-methyl-5-(3-dimethylaminopropylidene)-5H-dibenzo[a,d]cycloheptene N-oxide hydrochloride] | 140% | 14% | – |
| Cc1cccc2c1C=Cc1ccccc1C2=CCC[N+](C)(C)[O-] [1-methyl-5-(3-dimethylaminopropylidene)-5H-dibenzo[a,d]cycloheptene N-oxide] | – | – | antidepressive action (in words) [1]: excellent antidepressive action; antidepressive action (in words) ([1]; listed as 1-methyl-5-(3-dimethylaminopropylidene)-5-H-dibenzo[a,d]cyclohehptene N-oxide): considerably increased antidepressive action; toxicity (in words) [3]: reduced toxicity; salivation inhibition / anticholinergic action (in words) [2]: absence of substantial anticholinergic action |
| Cc1cccc2c1C=Cc1ccccc1C2=CCCN(C)C.Cl [1-methyl-5-(3-dimethylaminopropylidene)-5H-dibenzo[a,d]cycloheptene hydrochloride] | 130% | 60% | – |
| CNCCC=C1c2ccccc2C=Cc2c(C)cccc21.Cl [1-methyl-5-(3-methylaminopropylidene)-5H-dibenzo[a,d]cycloheptene hydrochloride] | 230% | 60% | – |
| Cc1cccc2c1CCc1ccccc1C2CCCN(C)C.Cl (stereo not shown) [1-methyl-10,11-dihydro-5-(3-dimethylaminopropyl)-5H-dibenzo[a,d]cycloheptene hydrochloride] | 180% | 50% | LD50 at 24 h ([4]; iv, i.v., read-out: LD50 i.v.): 25 to 50 mg/kg; LD50 at 24 h ([4]; po, p.o., read-out: LD50 p.o.): 300 to 600 mg/kg |
| Cc1cccc2c1CCc1ccccc1C2=CCCN(C)C.Cl [1-methyl-10,11-dihydro-5-(3-dimethylaminopropylidene)-5H-dibenzo[a,d]cycloheptene hydrochloride] | 220% | 50% | – |
| CNCCC=C1c2ccccc2CCc2c(C)cccc21.Cl [1-methyl-10,11-dihydro-5-(3-methylaminopropylidene)-5H-dibenzo[a,d]cycloheptene hydrochloride] | 140% | 50% | – |
| CN(C)CCC=C1c2ccccc2CCc2ccccc21 [Amitriptyline, 5-(3-dimethylaminopropylidene)-dibenzo[a,d][1,4] cycloheptadiene, reference compound] | 100% | 96% | – |
